One data set deals with T1, PTH receptor (Homo sapiens, UniProt Q03431).
T1 construct: endogenous in cells; host or cells: SaOS2-derived SGS-72 cells (human osteoblast line stably transfected with the GloSensor cAMP reporter)
T1 sequence (Q03431 27-593): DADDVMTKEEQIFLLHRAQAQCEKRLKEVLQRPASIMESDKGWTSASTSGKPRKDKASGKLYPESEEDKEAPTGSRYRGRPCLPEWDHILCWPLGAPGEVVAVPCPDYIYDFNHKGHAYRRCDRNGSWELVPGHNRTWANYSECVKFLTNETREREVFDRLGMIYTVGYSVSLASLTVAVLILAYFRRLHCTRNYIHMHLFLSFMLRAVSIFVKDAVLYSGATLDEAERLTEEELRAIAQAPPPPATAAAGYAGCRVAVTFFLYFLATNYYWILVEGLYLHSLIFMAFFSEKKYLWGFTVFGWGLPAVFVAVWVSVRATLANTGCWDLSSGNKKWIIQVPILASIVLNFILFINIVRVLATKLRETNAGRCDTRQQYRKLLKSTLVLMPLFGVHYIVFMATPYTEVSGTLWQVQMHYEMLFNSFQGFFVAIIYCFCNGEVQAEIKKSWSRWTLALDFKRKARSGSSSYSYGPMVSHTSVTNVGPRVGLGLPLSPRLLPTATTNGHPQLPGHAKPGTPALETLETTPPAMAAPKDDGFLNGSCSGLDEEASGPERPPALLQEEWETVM
The data set is described as follows: cAMP signaling in SaOS2/glosensor (SGS-72) cells. The class given is cell-based. The following applies: for Max %: maximum cAMP response relative to PTH(1-34)-2009. The procedure:
The cells are derived from the human osteoblast cell line, SaOS2 by stable transfection with a glosensor cAMP reporter.
cAMP signaling was assessed in an SaOS2-derived cell line stably expressing the luciferase-based GloSensor™ cAMP reporter (Hattersley et al., Paper presented at: Novel Signaling Mechanisms and Bone Cell Biology 2014; Binkowski et al., Methods in Molecular Biology 756:263-271, 2011). The cells were seeded into 96-well white plates and were assayed 24 to 48 hours post-confluency. Assays were performed at room temperature in CO2-independent culture media (Life Technologies, Corp., Carlsbad, CA) containing 0.1% BSA (CIDB). […] The time at which maximum luminescence (cps) observed with agonist alone, typically at 10-20 minutes after agonist addition, was used to obtain data from wells containing antagonist with or without agonist, to thus generate antagonist ligand dose-response curves. The resulting cps values were then plotted against ligand concentration using GraphPad Prism 7.0 software and a four-parameter logistics curve fitting equation, which yielded parameters of inhibitory potency (pIC50).

For data set [1] the following is noted: mouse, in vivo, sc.
Method: (§1) Mice were injected IV via the tail vein or subcutaneously with ligands in vehicle (0.05% Tween 80; 10 mM citrate; 150 mM NaCl; pH 5.0) to give the intended final ligand dose (e.g. 50 nmol/kg body weight). At times immediately before (t=0) and after injection, tail vein blood was collected and analyzed for concentrations of administered peptides or blood ionized calcium (Ca^2+) measured with a RAPIDLAB 348 analyzer (SIEMENS Healthcare Diagnostic, United Kingdom).
Data set [2] can be described thus: Blood ionized calcium in mice after injection. It is filed as in vivo. The following applies: single dose 10 nmol/kg i.v. From the text: Data are means±SEM; n=6 mice per group.
In Vivo Testing of the Polypeptides Wild-type, ca. 10-week old male C57BL/6J mice were purchased from the Charles River Laboratories (Wilmington, Massachusetts, USA). The origin and method of breeding of Col1-H223R “Jansen's” transgenic mice is described by Calvi et al. (J. Clin. Invest. 107:277-286, 2001). Mice were maintained in facilities operated by the Center for Comparative Research of the Massachusetts General Hospital, and acclimated in the facilities for seven days prior to being used for study. All experimental procedures were approved by the MGH Institutional Animal Care and Use Committee (IACUC). In each study, animals were assigned randomly to treatment groups. Where possible, power calculations established that the number of animals used per study group was sufficient to detect statistically significant differences in intended primary experimental outcomes (i.e., changes in serum Ca and Pi).

A short description of data set [3]: Pharmacokinetic properties in mice, hPTH(1-34) ELISA of plasma.
Method: as §1
Another data set in a line: in vivo. The settings on record: mouse, sc.
A short description of data set [4]: Hypophosphatemic effect (total inorganic phosphorus) in mice. It is filed as in vivo. The following applies: as compared to PTH(1-34). From the text:
Tail vein blood and spot urine were collected just prior to injection (t=0) and at the indicated times after injection.
Peptide doses for FIGS. 4A and 4B were 10 nmol/kg, while peptide doses were 50 nmol/kg for FIGS. 4C and 4D. T-test vs. vehicle: *p<0.05; PTH vs. Palm: +p<0.05. Mice were CD1 females, age 10 weeks. Data are means±SEM, n=6.

Like-named read-outs stand apart in the source and are kept apart here. Starred links: 1 amine or outer side, 2 acyl side, 3 side chain; linkers in the order of their positions; H or OH if unused. Non-standard residues stand in square brackets, D forms with d. Primed or numbered codes have the meaning given here. No end group written: not given here. K(Palm) = CCCCCCCCCCCCCCCC(=O)NCCCC[C@H](N[*:1])C(=O)[*:2]; PEG2′ = short PEG2 spacer in the linker Bounds are passed on as bounds.

Method for in vivo: as §1

The molecule `CC[C@H](C)[C@H](NC(=O)[C@H](CCC(=O)O)NC(=O)[C@H](CO)NC(=O)[C@@H](NC(=O)[C@@H](N)CO)C(C)C)C(=O)N[C@@H](CCC(N)=O)C(=O)N[C@@H](CC(C)C)C(=O)N[C@@H](CCSC)C(=O)N[C@@H](Cc1cnc[nH]1)C(=O)N[C@@H](CC(N)=O)C(=O)N[C@@H](CC(C)C)C(=O)NCC(=O)N[C@@H](CCCCN)C(=O)N[C@@H](Cc1cnc[nH]1)C(=O)N[C@@H](CC(C)C)C(=O)N[C@@H](CC(N)=O)C(=O)N[C@@H](CO)C(=O)N[C@@H](CCSC)C(=O)N[C@@H](CCC(=O)O)C(=O)N[C@@H](CCCNC(=N)N)C(=O)N[C@H](C(=O)N[C@@H](CCC(=O)O)C(=O)N[C@@H](Cc1c[nH]c2ccccc12)C(=O)N[C@@H](CC(C)C)C(=O)N[C@@H](CCCNC(=N)N)C(=O)N[C@@H](CCCCN)C(=O)N[C@@H](CCCCN)C(=O)N[C@@H](CC(C)C)C(=O)N[C@@H](CCC(N)=O)C(=O)N[C@@H](CC(=O)O)C(=O)N[C@H](C(=O)N[C@@H](Cc1cnc[nH]1)C(=O)N[C@@H](CC(N)=O)C(=O)N[C@@H](Cc1ccccc1)C(N)=O)C(C)C)C(C)C` [PTH(1-34)-2009, PTH(1-34)] had a Max % on PTH receptor (means ± SEM) of 100 ± 0%. The total area-under-the-curve in data set [1] is 0.00043 µM·h. Further, in data set [2], the “duration of increase of blood Ca2+ levels” value was no more than 4 h. The same molecule returned a Cmax in data set [3] (mouse, plasma, sc, 10 nmol/kg) of 0.65 nM. Moreover, in “in vivo”, the half-life is 12 min. In “in vivo” (10 nmol/kg), this molecule showed an AUC of 0.00043 µM·h and a half-life of 12 min.
For the molecule `CCCCCCCCCCCCCCCC(=O)NCCCC[C@H](NC(=O)[C@H](CCC(=O)O)NC(=O)[C@H](Cc1ccc(O)cc1)NC(=O)[C@H](CCC(=O)O)NC(=O)COCCOCCNC(=O)[C@H](Cc1ccccc1)NC(=O)[C@H](CC(N)=O)NC(=O)[C@H](Cc1c[nH]cn1)NC(=O)[C@@H](NC(=O)[C@H](CC(=O)O)NC(=O)[C@H](CCC(N)=O)NC(=O)[C@H](CC(C)C)NC(=O)[C@H](CCCCN)NC(=O)[C@H](CCCCN)NC(=O)[C@H](CCCNC(=N)N)NC(=O)[C@H](CC(C)C)NC(=O)[C@H](Cc1c[nH]c2ccccc12)NC(=O)[C@H](CCC(=O)O)NC(=O)[C@@H](NC(=O)[C@H](CCCNC(=N)N)NC(=O)[C@H](CCC(=O)O)NC(=O)[C@H](CCSC)NC(=O)[C@H](CO)NC(=O)[C@H](CC(N)=O)NC(=O)[C@H](CC(C)C)NC(=O)[C@H](Cc1c[nH]cn1)NC(=O)[C@H](CCCCN)NC(=O)CNC(=O)[C@H](CC(C)C)NC(=O)[C@H](CC(N)=O)NC(=O)[C@H](Cc1c[nH]cn1)NC(=O)[C@H](CCSC)NC(=O)[C@H](CC(C)C)NC(=O)[C@H](CCC(N)=O)NC(=O)[C@@H](NC(=O)[C@H](CCC(=O)O)NC(=O)[C@H](CO)NC(=O)[C@@H](NC(=O)[C@@H](N)CO)C(C)C)[C@@H](C)CC)C(C)C)C(C)C)C(=O)N[C@@H](CCC(=O)O)C(=O)N[C@@H](Cc1ccc(O)cc1)C(=O)N[C@@H](CCC(=O)O)C(N)=O` [Palm-PTH(1-34)-2027, Palm-PTH(1-34)], in data set [2], the “duration of increase of blood Ca2+ levels” value is recorded as “at least 24 hours”. Further, the total area-under-the-curve in data set [3] (mice, single injection 10 mnol/kg s.c.) was 0.116 µM·h. In addition, in data set [3] (mouse, plasma, sc, 10 nmol/kg), the AUC was 0.116 µM·h, the peak level (Cmax) was 28.1 nM, the Tmax was determined as 60 min and the half-life is 114 min. Besides, the hypophosphatemic effects result in data set [4] was “prolonged hypophosphatemic effects”.
In the case of “W1-Palm-PTH(1-34) (WVSEIQLMHNLGKHLNSMERVEWLRKKLQDVHNF[PEG2′]EYE-{K(Palm)-Glu-Tyr-Glu-NH2}) [Trp1-Palm-PTH(1-34)-2029]”, the “pEC50 (log molar concentration to attain 50% of maximum response observed with PTH(1-34)-2009)” value in the data set with PTH receptor (SaOS2/glosensor (SGS-72) cells, means ± SEM, n = 5) is 8.72 ± 0.15. The EC50 with PTH receptor (SaOS2/glosensor (SGS-72) cells, read-out: EC50, concentration in nM shown below pEC50 (converted)) was 1.91 nM. Moreover, in the data set with PTH receptor (means ± SEM), the Max % is 77 ± 8%.

The record behind these values is patent US11975050B2, “Parathyroid hormone polypeptide conjugates and methods of their use” (The General Hospital Corporation, priority 2018, dated 2024).
